The structures appear in SMILES notation.

From article PMC5581131, “The novel sphingosine-1-phosphate receptors antagonist AD2900 affects lymphocyte activation and inhibits T-cell entry into the lymph nodes” (Oncotarget, 2017) come the findings set out here.

The subject of assay [1] is C57BL/6 mice. Kind of assay: CCR7-positive T-cell population in vivo, FACS. Set-up: species or system mouse. An excerpt:
The S1P gradient is a crucial factor for lymphocytes to egress from lymphoid tissues and re-enter the circulation. […] To identify whether the effect of AD2900 on T-cell localization may be mediated by an influence on S1P1 and CCR7 expression, we tested the percentage of S1P1- and CCR7-positive T-cell populations in the blood, spleen, and lymph node in each mouse after a 2-day treatment with AD2900. The percentage of cells expressing S1P1 or CCR7 on their cell surface was detected by FACS analysis and was calculated as % of expressing population in non-treated animals. […] AD2900 elevates the S1P1-expressing population in the blood and spleen, whereas it reduces this population in the lymph nodes. […] In the lymph nodes, the […] population was not affected by AD2900 treatment (Figure 7F).
Figure 7 The influence of AD2900 on S1P1- and CCR7-positive T-cell populations in blood, spleen, and peripheral lymph nodes C57BL/6 mice were orally administered with 1.8, 2.7, and 3.6 mg/l AD2900 or 1.8 mg/l FTY720 for 2 days, as shown in Figure 4. Leukocytes from blood, spleen, and pLNs were collected and stained with CD3e and S1P1 or CCR7 fluorescent antibodies and then analyzed by FACS analysis. The percentages of S1P1+ CD3e+ T cells from blood (A), spleen (B), and pLNs (C) are shown. The percentages of CCR7+ CD3e+ T cells from blood (D), spleen (E), and pLNs (F) are shown. All the significances are compared to untreated healthy mice. Results summarize at least three independent experiments. Results of Student’s t-test:*(P < 0.05, two-tailed test), ** (P < 0.01, two-tailed test), *** (P < 0.001, two-tailed test), **** (P < 0.0001, two-tailed test).
Murine lymphocytes: The phenotype of murine lymphocytes was analyzed by flow cytometry using anti-CD3e-FITC, anti-CD19-PB, anti-CCR7-APC, anti-CD44-FITC, anti-CD62L-APC, and anti-TCR-β-PB (Biolegend, CA, USA).
C57BL/6 female mice aged 7–8 weeks were obtained from Harlan Laboratories (Jerusalem, Israel). The animal study was conducted under appropriate conditions and was approved by the Institutional Animal Care and Use Committee of the Hebrew University of Jerusalem in accordance with the national laws and regulations for the protection of animals. AD2900 was dissolved in 10% BSA (MP Biomedicals, CA, USA) in DDW at 1 mg/ml and then further diluted in 200 ml water to get final concentrations at 1.8, 2.7, or 3.6 mg/l. AD2900 and FTY720 were supplied ad libitum to the mice for 2 days or 7 days. At the end of the experiment, blood was collected, and the mice were sacrificed and tissues (lymph nodes and spleen) were harvested.

Assay [2] deals with S1P1 expression on PBMCs. Briefly: S1P1 cell surface expression on PBMCs, FACS. The class given is cell-based, human. The protocol: Among the S1P receptors, S1P1 is the most widespread receptor in the immune system and is expressed by several cell populations. […] Since AD2900 functions as an antagonist on S1P1, we next checked whether AD2900 affects S1P1 expression on PBMCs; FTY720 and SEW2817 were used as positive controls. The percentage of cells expressing S1P1 on their cell surface was detected by FACS analysis and was calculated as % of expression in non-treated cells. Low doses of AD2900 led to a decreased number of S1P1-expressing PBMCs after a 30-min treatment (Figure 3A and Supplementary Figure 2C). […] The highest effect was obtained at 100 nM with a mean of 51% ± 9% expression as compared to untreated control PBMCs.
Figure 3 AD2900 downregulates the percentage of S1P1- and CCR7-expressing cells in PBMCs (A, B) The percentages of S1P1-positive PBMCs after the treatment with different concentrations of AD2900, FTY720, or SEW2871 and at different time points were examined by FACS analysis. S1P1 expression was tested in PBMCs after a 30-min treatment with AD2900 at different concentrations (A) or after a 30-min or 60-min treatment with 100 nM AD2900, FTY720, or SEW2871 (B). (C) The percentage of CCR7-positive PBMCs was tested by FACS analysis after a 30-min treatment with 100 nM AD2900, FTY720, or SEW2871. All the significances are compared to untreated PBMCs. Results summarize the results of at least four independent experiments. Results of Student’s t-test: *(P < 0.05, two-tailed test), ** (P < 0.01, two-tailed test), *** (P < 0.001, two-tailed test), **** (P < 0.0001, two-tailed test).
Human PBMCs: For the apoptosis test, anti-AnnexinV-FITC (BD Biosciences, CA, USA) was used. To analyze S1P1 surface expression on AD2900-treated PBMCs, the following were used: anti-S1P1 (Alomone labs, Israel), anti-EDG-1 (Abcam, UK), Dylight405-conjugated AffiniPure Goat Anti-Rabbit lgG (H + L), and APC-conjugated AffiniPure F(ab')2 Goat Anti-Rabbit lgG(H + L) (Jackson ImmonoResearch, USA). For CCR7 expression, we used anti-CCR7-APC (Biolegend, CA, USA).

In the case of `CCCCCCCCCCCCCCCCNC(CO)(CO)CO` [AD2900], the “decrease of CCR7-positive T cells in the blood, of the normal expression levels” value in assay [1] (1.8 mg/l, 2-day treatment) is recorded as 21% ± 5%; in assay [1] (2.7 mg/l, 2-day treatment), 15% ± 4%. Further, in assay [1] (3.6 mg/l (highest dose), 2-day treatment), the “decrease of the S1P1 population, spleen T cells (Figure 7E)” value was 12% ± 4%. For the same molecule, in assay [1] (2-day treatment), the “S1P1 population in the lymph nodes (Figure 7F)” value is given as “not affected”. Besides, the “effect on S1P1 cell surface expression, 30-min versus 60-min treatment” value in assay [2] (100 nM) was “transient and reversed shortly after a 60-min treatment”. In assay [2] (100 nM, 30-min treatment, highest effect), the “S1P1 expression as compared to untreated control PBMCs” value is on record as 51% ± 9%. For the same molecule, in assay [2] (4000 nM, 30-min treatment), the S1P1 expression level entry is “returned to that of untreated control”. In addition, the “concentrations that significantly and dose-dependently decreased S1P1 expression” value in assay [2] (30-min treatment) was in the range of 25 to 2000 nM.
As to `CCCCCCCCc1ccc(CCC(N)(CO)CO)cc1` [FTY720, Fingolimod, reference compound], the “reduction of the CCR7 population in murine blood, spleen, and lymph nodes” value in assay [1] (1.8 mg/l, 2 days) is given as 15%–20%. The “effect on S1P1 cell surface expression, 30-min versus 60-min treatment” value in assay [2] (100 nM) is “smaller reduction of S1P1 cell surface expression, but its effect was not reversed after a 60-min treatment”.
